Reference: US20050048587A1, “Methods for identifying tolerance modulatory compounds and uses therefor” (TolerRx, Inc., priority 2003, published 2005)

B1: IL4: cytokine known to initiate the differentiation of Th2 cells (protein, UniProt P05112 25-153, looked up)
Interleukin-4: HKCDITLQEIIKTLNSLTEQKTLCTELTVTDIFAASKNTTEKETFCRAATVLRQFYSHHEKDTRCLGATAQQFHRHKQLIRFLKRLDRNLWGLAGLNSCPVKEANQSTLENFLERLKTIMREKYSKCSS

Tests used:
Format in all cases: cell-based, human
[1] = test system: Th2 cells; test: [3H] thymidine proliferation assay of differentiated Th2 cells; details: anti-CD3/CD-28 coated wells, 72 hrs with drug, [3H] thymidine incorporation
Experimental: (§1) Resting, fully differentiated Th1, Th2 and Treg were seeded in wells of a 96 well plate coated with anti-CD3 and CD-28. Cells (200,000 per well) were grown in the presence or absence of a known immunomodulatory drugs including rapamycin, cyclosporine A and Cellcept (MMF) (antiproliferative agent) at the concentrations indicated for 72 hrs prior to the addition of [^3H] thymidine. The cells were then incubated with [^3H] thymidine (0.5 μCi/well) for an additional 6-18 hrs and harvested. [^3H] thymidine incorporation was determined by liquid scintillation counting.

[2] = test system: GATA3; test: GATA3 transcription factor mRNA expression, real-time PCR, in stimulated PBL; details: PBL stimulated 72 hrs with anti-CD3/anti-CD28 in presence of agent; relative to stimulated PBL without agent
Experimental: (§2) CD4+CD45RA+naïve, CD4+CD45RA−memory cells were prepared as follows. A Buffy Coat from human peripheral blood was obtained from the Oklahoma Blood Institute and processed as follows. Blood was diluted 1:2 with PBS without Ca^++Mg^++. 30 ml diluted blood was overlaid onto 15 ml Ficoll. Tubes were spun for ˜30 minutes at 2000 rpm. The Buffy cell layer was harvested into 25 ml PBS and brought to a volume of 45 ml total. Tubes were then spun ˜10 minutes at […]. Tubes were finally combined and washed with PBS. Approximately 10 percent of the cell preparation was set aside (X-VIVO 15 media+10% FCS) and is referred to hereinafter as “PBL.”
(§3) Cells (i.e., PDL, CD4+ naive, and CD4+ memory cells), were plated in six well dishes at approximately 3-4×10^6 cells/well. Prior to plating, wells were coated with αCD3/αCD28 antibodies. This was achieved by incubating the wells in the presence of antibodies for approximately 2 hrs at 37° C. Wells were subsequently washed with PBS. Cells were plated in X-VIVO 15 with 10% FCS. […]
(§4) 2.5 μl Assay on Demand reagent (Applied Biosystems) were added to 25 μl TaqMan Master MiX™ and samples brought to a total volume of 50 μl with RNAse-free water. […] Reactants were detected using an Applied Biosystems QPCR instrument (i.e., ABI Program 7000 SDS Sequence Detection System). […] The relative expression of the markers in each cell type and at each time point was also determined. […]

[3] = test system: TGFβ by Treg cells; test: TGFβ production by differentiated Treg cells, multiplexed ELISA; details: anti-CD3/CD-28 coated wells, 72 hrs with drug, supernatants
Experimental: (§5) Resting, fully differentiated Th1, Th2 and Treg were seeded in wells sof a 96 well plate coated with anti-CD3 and CD-28. Cells (200,000 per well) were grown in the presence or absence of a known immunomodulatory drugs including rapamycin, cyclosporine A and Cellcept (MMF) (antiproliferative agent) at the concentrations indicated for 72 hrs prior to the collection of supernatants for measurement of secreted cytokines. Cytokine measurement were made using a multiplexed ELISA assay (Pierce/Endogen Searchlight Assay).

[4] = test system: FOXP3; test: FOXP3 transcription factor mRNA expression, real-time PCR, in stimulated PBL; details: PBL stimulated 72 hrs with anti-CD3/anti-CD28 in presence of agent; relative to stimulated PBL without agent
Experimental: as §2, §3, §4

[5] = test system: Tbox21; test: Tbox21 (TBX21) transcription factor mRNA expression, real-time PCR, in stimulated PBL; details: PBL stimulated 72 hrs with anti-CD3/anti-CD28 in presence of agent; relative to stimulated PBL without agent
Experimental: as §2, §3, §4

[6] = test system: Th1 cytokines; test: Cytokine production by differentiated Th1 cells, multiplexed ELISA; details: anti-CD3/CD-28 coated wells, 72 hrs with drug, supernatants
Experimental: as §5

[7] = test system: Th1 cells; test: [3H] thymidine proliferation assay of differentiated Th1 cells; details: anti-CD3/CD-28 coated wells, 72 hrs with drug, [3H] thymidine incorporation
Experimental: as §1

[8] = test system: Treg cells; test: [3H] thymidine proliferation assay of differentiated Treg cells; details: anti-CD3/CD-28 coated wells, 72 hrs with drug, [3H] thymidine incorporation
Experimental: as §1

[9] = test system: Th2 cytokines; test: Cytokine production by differentiated Th2 cells, multiplexed ELISA; details: anti-CD3/CD-28 coated wells, 72 hrs with drug, supernatants
Experimental: as §5

[10] = test system: peripheral blood lymphocytes (PBLs); test: Assay of cell proliferation of stimulated PBL; details: PBL stimulated with anti-CD3/anti-CD28, 72 hours
Experimental: FIG. 3 graphically depicts the proliferation of peripheral blood lymphocytes (PBLs) at 72 hours post-stimulation with αCD3/αCD28 in the presence of the known immunomodulatory agents, rapamycin, cyclosporine, and Cellcept (MMF) (anti-proliferative agent). Proliferation is relative to that observed in control, stimulated PBL (in the absence of any added agent).
PBL were activated with anti-CD3 in combination with anti-CD28 in the presence or absence of the known immunomodulatory drugs including dexamethasone, rapamycin, cyclosporine A and Cellcept (antiproliferative agent) at the concentrations indicated. At 72 hours, RNA was prepared from the treated cells and the untreated controls. Real-time PCR was performed using cDNA from the RNA and using the primers and probes for the three transcription factors. The data are set forth in FIG. 2A-D. Dexamethasone is documented to result in a shift of in vivo immune responses towards characteristics recognized to be associated with Th2 cells when administered to both humans and animals. […] Rapamycin and cyclosporine are general immunosuppressants utilized to prevent allograft rejection in humans. Both drugs are known to utilize common cellular components. […] Cellcept is an anti-proliferative agent also used in organ transplantation. Its primary effect on the immune system is believed to be simple reduction of lymphocyte proliferation.

Molecule | effect on proliferation of Th2 cells [1] | effect on GATA3 (Th2 transcription factor) expression [2] | effect on production of TGFβ by Treg cells [3] | effect on FOXP3 (Treg transcription factor) expression [4] | effect on Tbox21/TBX21 (Th1 transcription factor) expression [5] | effect on Th1 cytokine production [6] | effect on proliferation of Th1 cells [7] | effect on proliferation (expansion) of Treg cells [8] | effect on Th2 cytokine production [9] | effect on cell proliferation [10]
COc1c(C)c2c(c(O)c1C/C=C(\C)CCC(=O)OCCN1CCOCC1)C(=O)OC2 [Cellcept] | equally inhibited the expansion of all cell types in a dose dependent manner | did not affect | does not suppress any cytokine measured except for TGFβ in T reg cells | did not affect | did not affect | does not suppress | equally inhibited the expansion of all cell types in a dose dependent manner | equally inhibited the expansion of all cell types in a dose dependent manner | does not suppress | dose-dependent inhibition of proliferation
TGFβ |  |  |  | induced |  |  |  |  |  | 
B1 |  | clearly increased |  |  |  |  |  |  |  | 
